The source of these data is patent US20260138961A1, “MODULATORS OF MITOCHONDRIAL DNA REPLICATION” (Pretzel Therapeutics, Inc., priority 2022, published 2026).

In general, AC50 refers to the midpoint of the concentration-response curve, whichever way the signal moves.

For this test, the target named is T1, POLγA:A467T (Homo sapiens, UniProt P54098, A467T).
T1 sequence (P54098 1-1239 A467T): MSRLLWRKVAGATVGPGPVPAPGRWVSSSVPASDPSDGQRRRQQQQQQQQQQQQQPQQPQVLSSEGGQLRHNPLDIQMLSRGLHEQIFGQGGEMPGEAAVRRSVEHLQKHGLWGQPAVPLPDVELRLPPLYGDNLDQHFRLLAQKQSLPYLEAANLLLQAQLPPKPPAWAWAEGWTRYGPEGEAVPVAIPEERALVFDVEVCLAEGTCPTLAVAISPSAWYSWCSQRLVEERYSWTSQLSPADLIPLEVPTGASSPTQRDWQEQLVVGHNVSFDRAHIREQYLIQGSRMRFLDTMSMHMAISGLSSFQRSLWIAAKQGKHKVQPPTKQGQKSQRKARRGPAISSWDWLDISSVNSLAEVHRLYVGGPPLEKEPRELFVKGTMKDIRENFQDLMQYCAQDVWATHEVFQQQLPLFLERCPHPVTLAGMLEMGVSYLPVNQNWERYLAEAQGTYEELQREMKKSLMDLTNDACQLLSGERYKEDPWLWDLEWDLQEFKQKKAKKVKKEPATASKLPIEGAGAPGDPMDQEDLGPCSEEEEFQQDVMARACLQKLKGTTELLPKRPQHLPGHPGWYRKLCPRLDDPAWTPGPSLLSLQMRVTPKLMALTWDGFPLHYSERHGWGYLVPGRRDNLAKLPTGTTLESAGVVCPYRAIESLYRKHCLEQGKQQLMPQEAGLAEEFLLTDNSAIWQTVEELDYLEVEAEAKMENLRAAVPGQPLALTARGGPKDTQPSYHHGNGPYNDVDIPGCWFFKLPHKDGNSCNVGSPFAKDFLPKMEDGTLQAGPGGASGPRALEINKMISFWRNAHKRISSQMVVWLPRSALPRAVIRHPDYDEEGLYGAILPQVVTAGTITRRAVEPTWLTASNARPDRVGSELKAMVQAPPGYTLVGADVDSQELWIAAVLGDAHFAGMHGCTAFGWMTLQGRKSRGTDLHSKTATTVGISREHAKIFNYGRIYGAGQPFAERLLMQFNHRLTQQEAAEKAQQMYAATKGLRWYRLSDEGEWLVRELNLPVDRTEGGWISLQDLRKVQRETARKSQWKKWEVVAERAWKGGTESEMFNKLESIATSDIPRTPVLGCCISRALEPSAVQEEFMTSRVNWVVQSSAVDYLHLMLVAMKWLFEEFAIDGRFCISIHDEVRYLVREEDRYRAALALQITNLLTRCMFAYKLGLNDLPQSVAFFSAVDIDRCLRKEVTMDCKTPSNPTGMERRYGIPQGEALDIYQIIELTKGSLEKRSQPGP
T1 sequence (Q9UHN1 1-485 partner): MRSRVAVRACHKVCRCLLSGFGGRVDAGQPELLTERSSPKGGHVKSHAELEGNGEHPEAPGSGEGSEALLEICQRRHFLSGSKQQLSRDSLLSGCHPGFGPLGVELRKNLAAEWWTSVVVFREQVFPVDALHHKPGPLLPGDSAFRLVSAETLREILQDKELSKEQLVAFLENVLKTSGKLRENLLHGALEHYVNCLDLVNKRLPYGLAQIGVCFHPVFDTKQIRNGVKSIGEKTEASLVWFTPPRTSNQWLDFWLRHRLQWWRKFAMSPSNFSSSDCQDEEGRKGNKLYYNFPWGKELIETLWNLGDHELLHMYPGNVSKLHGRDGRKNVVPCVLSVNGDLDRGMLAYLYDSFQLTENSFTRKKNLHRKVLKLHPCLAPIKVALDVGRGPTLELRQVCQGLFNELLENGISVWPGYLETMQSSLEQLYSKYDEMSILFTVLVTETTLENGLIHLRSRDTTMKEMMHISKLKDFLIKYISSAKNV
Put plainly: DNA polymerization assay, POLγA:A467T mutant. The settings on record: stimulation of polymerase activity, primed M13mp18 ssDNA, 37° C. 2 hours; read-out: A467T AC50. The test is classed as biochemical.
With `Cc1cc(S(=O)(=O)Nc2cccc(C(=O)N[C@H](C)CO)c2)c(C)cc1Cl` [Example 51, (R)-3-((4-chloro-2,5-dimethylphenyl)sulfonamido)-N-(1-hydroxypropan-2-yl)benzamide], the AC50 is greater than 100 µM.

Consider `Cc1cc(S(=O)(=O)Nc2cccc(C(=O)N3CCN(C)CC3)c2)c(C)cc1Cl` [Example 52, 4-chloro-2,5-dimethyl-N-(3-(4-methylpiperazine-1-carbonyl)phenyl)benzenesulfonamide], for which the AC50 is greater than 100 µM.

`Cc1cc(S(=O)(=O)Nc2cccc(C(=O)NCCO)c2)c(C)cc1Cl` [Example 53, 3-((4-chloro-2,5-dimethylphenyl)sulfonamido)-N-(2-hydroxyethyl)benzamide]: the AC50 is greater than 100 µM.

As to `Cc1cc(S(=O)(=O)Nc2cccc(C(=O)N3CCN(C)C[C@H]3C)c2)c(C)cc1Cl` [Example 54, (R)-4-chloro-N-(3-(2,4-dimethylpiperazine-1-carbonyl)phenyl)-2,5-dimethylbenzenesulfonamide], the AC50 is greater than 100 µM.

`Cc1cc(S(=O)(=O)Nc2cccc(C(=O)N3CCN(CCO)CC3)c2)c(C)cc1Cl` [Example 55, 4-chloro-N-(3-(4-(2-hydroxyethyl)piperazine-1-carbonyl)phenyl)-2,5-dimethylbenzenesulfonamide]: the AC50 was greater than 100 µM.

Take `Cc1cc(S(=O)(=O)Nc2cccc(C(=O)N(C)CCO)c2)c(C)cc1Cl` [Example 56, 3-((4-chloro-2,5-dimethylphenyl)sulfonamido)-N-(2-hydoxyethyl)-N-methylbenzamide]: the AC50 is greater than 100 µM.

In the case of `Cc1cc(S(=O)(=O)Nc2cccc(C(=O)N3CCC[C@H]3C)c2F)c(C)cc1Cl` [Example 57, (R)-4-chloro-N-(2-fluoro-3-(2-methylpyrrolidine-1-carbonyl)phenyl)-2,5-dimethylbenzenesulfonamide], the AC50 is greater than 100 µM.

For the compound `COCCN(C)C(=O)c1cccc(NS(=O)(=O)c2cc(C)c(Cl)cc2C)c1` [Example 58, 3-((4-chloro-2,5-dimethylphenyl)sulfonamido)-N-(2-methoxyethyl)-N-methylbenzamide], the AC50 was greater than 100 µM.

For `O=S(=O)(Nc1cccc(-c2nccs2)c1)c1ccc(Cl)cc1` [Example 59, 4-chloro-N-(3-(thiazol-2-yl)phenyl)benzenesulfonamide], the AC50 is greater than 100 µM.

`Cc1ccc(C)c(S(=O)(=O)Nc2cccc(-c3nccs3)c2)c1` [Example 60]: the half-maximal activity concentration (AC50) came to 5 µM.

Consider `Cc1cc(S(=O)(=O)Nc2cc(-c3nccs3)ccc2F)c(C)cc1Cl` [Example 61, 4-chloro-N-(2-fluoro-5-(thiazol-2-yl)phenyl)-2,5-dimethylbenzenesulfonamide], for which the AC50 was greater than 100 µM.

Take `Cc1cc(S(=O)(=O)Nc2cc(F)cc(-c3nccs3)c2)c(C)cc1Cl` [Example 62, 4-chloro-N-(3-fluoro-5-(thiazol-2-yl)phenyl)-2,5-dimethylbenzenesulfonamide]: the AC50 was greater than 100 µM.

Regarding `Cc1cc(S(=O)(=O)Nc2ccc(F)c(-c3nccs3)c2)c(C)cc1Cl` [Example 63, 4-chloro-N-(4-fluoro-3-(thiazol-2-yl)phenyl)-2,5-dimethylbenzenesulfonamide], the AC50 is greater than 100 µM.

As for `Cc1cc(S(=O)(=O)Nc2cccc(-c3cc(C4CC4)[nH]n3)c2)c(C)cc1Cl` [Example 64, 4-chloro-N-(3-(5-cyclopropyl-1H-pyrazol-3-yl)phenyl)-2,5-dimethylbenzenesulfonamide], the AC50 was found to be 8 µM.

`CC[C@@H]1CCCN1C(=O)c1cccc(NS(=O)(=O)c2cc(C)c(Cl)cc2C)c1` [Example 65, (R)-4-chloro-N-(3-(2-ethylpyrrolidine-1-carbonyl)phenyl)-2,5-dimethylbenzenesulfonamide]: the AC50 was 15 µM.

For `Cc1cc(-c2cccc(NS(=O)(=O)c3cc(C)c(Cl)cc3C)c2)n[nH]1` [Example 66, 4-chloro-2,5-dimethyl-N-(3-(5-methyl-1H-pyrazol-3-yl)phenyl)benzenesulfonamide], the AC50 worked out at 11 µM.
